Assay results as given in ChEMBL document CHEMBL1201862, “PubChem BioAssay data set” (2004).
Several values for one entry are separate records, joined by “and”; a condition that tells them apart may be missing. Identical values can stand only once.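 Grown in 96-well plates, cells were treated for 48 hours with each compound at five concentrations. Insufficient inhibition: endpoint recorded as highest concentration tested. GI50 = concentration required for 50% inhibition of growth.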 Activity calls are given as the source filed them. Cut-off read from the data, not from the text of the source: active = GI50 up to about 1.1 µM and inactive = higher.

Legend:
Assay in all cases: NCI anticancer screen, dose series, 48 h
NCI-H460 = test system: NCI-H460
LOX IMVI = test system: LOX IMVI
MOLT-4 = test system: MOLT-4
KM12 = test system: KM12
IGROV-1 = test system: IGROV-1
SF-268 = test system: SF-268
NCI-H522 = test system: NCI-H522
COLO 205 = test system: COLO 205
OVCAR-4 = test system: OVCAR-4
OVCAR-8 = test system: OVCAR-8
SK-MEL-28 = test system: SK-MEL-28
HCT-116 = test system: HCT-116
M14 = test system: M14
RPMI-8226 = test system: RPMI-8226
TK-10 = test system: TK-10
U-251 = test system: U-251
SW-620 = test system: SW-620
SN12C = test system: SN12C

Measured: GI50

CC1=C2C(=O)O[C@@H](c3ccoc3)[C@]2(C)CCC1 [FRAXINELLONE]
inactive: NCI-H460 > 100 µM | LOX IMVI > 100 µM | MOLT-4 > 100 µM | KM12 > 100 µM | IGROV-1 > 100 µM | SF-268 > 100 µM | NCI-H522 > 100 µM | COLO 205 > 100 µM | OVCAR-4 > 100 µM | OVCAR-8 > 100 µM | SK-MEL-28 > 100 µM | HCT-116 > 100 µM | M14 > 100 µM | RPMI-8226 > 100 µM | TK-10 > 100 µM | U-251 > 100 µM | SW-620 > 100 µM

CC(=O)OCC1OC(N2C(=O)C(=O)c3cc(C)ccc32)C(OC(C)=O)C(OC(C)=O)C1OC(C)=O (stereo unspecified)
inactive: NCI-H460 > 100 µM | LOX IMVI 17.1 µM | MOLT-4 29 µM | SN12C 65.6 µM | KM12 > 100 µM | IGROV-1 46 µM | SF-268 49.5 µM | NCI-H522 36.3 µM | COLO 205 94.6 µM | OVCAR-4 > 100 µM | OVCAR-8 63.4 µM | SK-MEL-28 32.5 µM | HCT-116 59.7 µM | M14 66.5 µM | RPMI-8226 29.4 µM | TK-10 > 100 µM | U-251 > 100 µM | SW-620 > 100 µM

COC(=O)[C@]1(C)CCC[C@]2(C)C3CC4OOC3(C=C4C(C)C)CCC21 (stereo partly specified)
inactive: NCI-H460 12.4 µM | LOX IMVI 2.77 µM | MOLT-4 16.9 µM | SN12C 16.8 µM | KM12 17.4 µM | IGROV-1 16 µM | SF-268 15.4 µM | NCI-H522 1.78 µM | COLO 205 19.7 µM | OVCAR-4 19.9 µM | OVCAR-8 19.8 µM | HCT-116 15.7 µM | M14 15.5 µM | RPMI-8226 12.7 µM | TK-10 23.4 µM | U-251 19.8 µM | SW-620 16 µM

CC1CN(c2ccc(Cl)cc2)CC(C)(C)OC(=O)O1 (stereo unspecified)
inactive: NCI-H460 > 100 µM | LOX IMVI > 100 µM | SN12C > 100 µM | KM12 > 100 µM | IGROV-1 > 100 µM | SF-268 > 100 µM | NCI-H522 > 100 µM | COLO 205 > 100 µM | OVCAR-4 > 100 µM | OVCAR-8 > 100 µM | SK-MEL-28 > 100 µM | HCT-116 > 100 µM | M14 > 100 µM | RPMI-8226 > 100 µM | TK-10 > 100 µM | U-251 > 100 µM | SW-620 > 100 µM

C/C(=N\OCC(O)CNC(C)C)c1ccc2c(c1)NC(=O)CS2 (stereo unspecified)
inactive: NCI-H460 > 100 µM | LOX IMVI > 100 µM | MOLT-4 > 100 µM | SN12C > 100 µM | KM12 > 100 µM | SF-268 > 100 µM | NCI-H522 > 100 µM | COLO 205 > 100 µM | OVCAR-4 > 100 µM | OVCAR-8 > 100 µM | SK-MEL-28 > 100 µM | HCT-116 > 100 µM | M14 > 100 µM | TK-10 > 100 µM | U-251 > 100 µM | SW-620 > 100 µM

Sc1nnc(C(c2ccccc2)c2ccccc2)[nH]1
inactive: NCI-H460 > 100 µM | LOX IMVI > 100 µM | MOLT-4 > 100 µM | SN12C > 100 µM | KM12 > 100 µM | IGROV-1 > 100 µM | SF-268 > 100 µM | NCI-H522 53.2 µM | COLO 205 > 100 µM | OVCAR-8 > 100 µM | SK-MEL-28 > 100 µM | HCT-116 > 100 µM | TK-10 > 100 µM | U-251 > 100 µM | SW-620 > 100 µM

O=C1c2ccccc2-c2c3c(cc4ccnc1c24)OCO3 [LIRIODENINE]
inactive: NCI-H460 3.59 µM and 3.34 µM | LOX IMVI 3.77 µM and 4.22 µM | MOLT-4 3.38 µM and 3.67 µM | SN12C 4.98 µM and 5.82 µM | KM12 6.44 µM and 6.5 µM | IGROV-1 5.97 µM and 3.9 µM | SF-268 6.14 µM and 6.03 µM | COLO 205 4.79 µM and 4.24 µM | OVCAR-4 5.07 µM and 8.24 µM | OVCAR-8 4.04 µM and 5.14 µM | SK-MEL-28 5.58 µM and 5.27 µM | HCT-116 3.29 µM and 3.17 µM | M14 7.53 µM and 6.71 µM | RPMI-8226 3.2 µM and 3.48 µM | U-251 6.32 µM and 5.45 µM | SW-620 4.92 µM and 3.82 µM

CCC(C)NC1=C(NC(C)=O)C(=O)c2ccccc2C1=O (stereo unspecified)
inactive: NCI-H460 > 75 µM | LOX IMVI 15.6 µM | MOLT-4 74 µM | SN12C > 75 µM | KM12 > 75 µM | IGROV-1 > 75 µM | SF-268 > 75 µM | COLO 205 > 75 µM | OVCAR-4 > 75 µM | OVCAR-8 > 75 µM | SK-MEL-28 > 75 µM | HCT-116 > 75 µM | M14 > 75 µM | RPMI-8226 13.4 µM | TK-10 > 75 µM | U-251 > 75 µM | SW-620 22.5 µM

CCOC(=O)C1N(S(=O)(=O)c2ccc(C)cc2)CCC12C(c1ccc(OC)cc1)NC1CCCCC12 (stereo unspecified)
inactive: NCI-H460 > 100 µM | LOX IMVI > 100 µM | SN12C > 100 µM | KM12 > 100 µM | IGROV-1 > 100 µM | SF-268 > 100 µM | NCI-H522 > 100 µM | COLO 205 > 100 µM | OVCAR-4 27.2 µM | OVCAR-8 > 100 µM | SK-MEL-28 > 100 µM | HCT-116 > 100 µM | M14 > 100 µM | RPMI-8226 > 100 µM | TK-10 > 100 µM | U-251 70.8 µM | SW-620 > 100 µM

c1ccc(C2Nc3ccccc3C3OCCCC23)cc1 (stereo unspecified)
inactive: NCI-H460 > 10 µM | LOX IMVI 12.8 µM | MOLT-4 24.9 µM | SN12C 38.5 µM | KM12 25.1 µM | IGROV-1 11.8 µM | SF-268 25.6 µM | COLO 205 35.4 µM | OVCAR-4 47.3 µM | OVCAR-8 17.5 µM | HCT-116 17.6 µM | RPMI-8226 20.1 µM | U-251 17.8 µM | SW-620 26 µM

OC1c2ccccc2C2(O)C1C(c1ccccc1)C(c1ccccc1)C2(O)c1ccccc1 (stereo unspecified)
inactive: NCI-H460 4.56 µM | LOX IMVI 5.4 µM | MOLT-4 3.98 µM | SN12C 11.4 µM | KM12 10.6 µM | IGROV-1 18.2 µM | SF-268 6.79 µM | NCI-H522 6.34 µM | COLO 205 14 µM | OVCAR-4 19.5 µM | OVCAR-8 12.6 µM | SK-MEL-28 11.9 µM | M14 13.7 µM | RPMI-8226 4.65 µM | TK-10 23.2 µM | U-251 8.17 µM | SW-620 15.8 µM
